Common to all, as to test: growth of human tumour cells (NCI), 48 h
In assay [1] the test system is SW-620 colon.
Assay [2] concerns SF-295 CNS.
For assay [3], the system named is NCI-H23 lung.
For assay [4], the system named is HOP-92 NSCLC.
Assay [5] deals with 786-0 renal.
Assay [6] relates to SK-MEL-28 melanoma.
For assay [7], the system named is MOLT-4 leukemia.
The subject of assay [8] is HCT-116 colon.
Assay [9] deals with UACC-62 melanoma.
The subject of assay [10] is SF-539 CNS.

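Five compound concentrations were applied to cells in 96-well plates for 48 hours; endpoints were derived by simple linear interpolation of the resulting dose-response curve. GI50 marks 50% less growth. TGI denotes the concentration required for complete inhibition of growth.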 Where only a bound is given, the exact number is not on record here.

`Clc1ccc(Nc2nc3ccccc3nc2-c2cccs2)cc1Cl`: the TGI in assay [1] was above 100 µM; in assay [2] it was above 100 µM; in [3], above 100 µM; in assay [4], 78.8 µM; in assay [5], above 100 µM; in [6] it was above 100 µM. Besides, the TGI in assay [7], in assay [8], in [9] and in assay [10] was above 100 µM throughout.

In the case of `CCCN(CCS(C)(=O)=O)Cc1ccc(-c2ccc3ncnc(Nc4ccc(OCc5cccc(F)c5)c(Cl)c4)c3c2)o1`, the GI50 in [1], in assay [2], in assay [3], in [4], in [5] and in [6] was above 25 µM throughout. Further, the GI50 in [7] was 7.31 µM; in assay [8], above 25 µM; in assay [9] it was above 25 µM; in assay [10] it was above 25 µM. Further, the TGI in [1], in [2], in assay [3], in [4], in [5] and in assay [6] was above 25 µM throughout. The TGI in assay [7], in assay [8], in assay [9] and in [10] was above 25 µM throughout.

Take `COc1ccc(-c2cc(Cc3cccs3)c(=O)[nH]n2)cc1`: the TGI in assay [1], in assay [2], in [3], in assay [4], in [5] and in assay [6] was above 100 µM in each case. Besides, the TGI in [8], in [9] and in assay [10] was above 100 µM in each case.

On to `O=C(OCc1ccc2ccccc2n1)c1cn(C2CC2)c2cc(N3CCN(Cc4ccc5ccccc5n4)CC3)c(F)cc2c1=O`, for which the GI50 was above 89.5 µM in assay [1]; 35.2 µM in assay [2]; 42.3 µM in assay [3]; above 100 µM in [4]; above 49.2 µM in [5]; 35.4 µM in assay [6]. The GI50 in assay [7] was above 100 µM; in [8], above 53.2 µM; in assay [9], 46.1 µM; in [10], 21.2 µM. In addition, the TGI was above 100 µM in assay [1]; above 100 µM in [2]; above 88.6 µM in assay [3]; above 100 µM in assay [4]; above 68.4 µM in [5]; above 100 µM in [6]. The TGI in assay [7] was above 100 µM; in [8], above 95.3 µM; in assay [9] it was above 100 µM; in assay [10], 58 µM.

For `COc1ccc2c(c1)N(CCO)C1=C(C(=O)OC1)C2c1cccc(F)c1` (configuration not stated), the GI50 in assay [1] was 0.236 µM; in [2] it was 0.196 µM; in [3], 1.8 µM; in assay [4], 0.525 µM; in [5], 0.644 µM; in [6], 5.59 µM. Moreover, the GI50 in [7] was 0.538 µM; in assay [8], 0.406 µM; in assay [9], 0.203 µM; in [10], 0.332 µM. The TGI in [1] is above 50 µM; in assay [2] it was above 50 µM; in assay [3], above 50 µM; in assay [4], above 23.3 µM; in assay [5], above 50 µM; in [6] it was above 50 µM. Also, the TGI in assay [7] was above 50 µM; in [8], above 50 µM; in assay [9] it was above 50 µM; in assay [10] it was 3.19 µM.

Turning to `O=C(O)c1ccc(C(=O)c2ccccc2)c(C(=O)O)c1`, the TGI in assay [1], in assay [2], in assay [3], in [4], in [5] and in assay [6] was above 100 µM throughout. Besides, the TGI in [7], in assay [8], in assay [9] and in [10] was above 100 µM each time.

In the case of `COc1ccc(-c2[nH]c3ccccc3c2-c2ccc(OC)cc2)cc1`, the GI50 in assay [1] was 4.53 µM; in assay [2], 3.33 µM; in assay [3], 6.26 µM; in [4], 2.24 µM; in assay [5], 2.95 µM; in assay [6], 8.6 µM. The GI50 in assay [7] was 2.68 µM; in assay [8], 3.93 µM; in [9], 6.25 µM; in [10], 3.05 µM. In addition, the TGI in [1] is 36.8 µM; in assay [2], 14 µM; in [3] it was 26.2 µM; in assay [4], 9.4 µM; in [5], 7.64 µM; in assay [6], 31.5 µM. In addition, the TGI in assay [7] is 9.62 µM; in [8], 14.6 µM; in assay [9], 22 µM; in assay [10], 10.4 µM.

`O=C(/C=C\c1cccc([N+](=O)[O-])c1)/C=C/c1cccc([N+](=O)[O-])c1`: the GI50 in assay [1] was 1.9 µM; in assay [2] it was 2.37 µM; in assay [3] it was 4.43 µM; in [4], 9.92 µM; in [5] it was 5.05 µM; in assay [6], above 100 µM. Further, the GI50 in [8] was 0.2 µM; in [9], 14.8 µM; in assay [10], 7.89 µM. The TGI in assay [1] is 4.53 µM; in [2], 7.77 µM; in assay [3] it was above 100 µM; in assay [4] it was 43.9 µM; in [5], 22.1 µM; in assay [6] it was above 100 µM. Also, the TGI was 0.407 µM in assay [8], above 100 µM in assay [9] and above 100 µM in assay [10].

For the compound `O=C1OC(=O)C(=C\c2ccc3c(c2)OCO3)/C1=C/c1ccc2c(c1)OCO2`, the TGI in [1], in [2], in assay [3], in assay [4], in assay [5] and in assay [6] was above 100 µM throughout. The TGI in assay [7], in assay [8], in [9] and in assay [10] was above 100 µM throughout.

Values taken from PubChem BioAssay (NCI).
